{"source": "DBAASP", "test_in_all_cases": "≥ marks a high value that may be exact or a test limit, other limits are often not marked, values filed in µg/mL are converted to µM", "key": {"Bacillus anthracis": {"tested_on": "Bacillus anthracis"}, "Bacillus cereus": {"tested_on": "Bacillus cereus"}, "Escherichia coli": {"tested_on": "Escherichia coli"}, "Staphylococcus aureus": {"tested_on": "Staphylococcus aureus"}, "[1]": {"tested_on": "Aspergillus flavus KCTC 7375"}, "[2]": {"tested_on": "Bacillus subtilis KCTC 3068"}, "[3]": {"tested_on": "Candida albicans KCTC 7121"}, "[4]": {"tested_on": "Escherichia coli KCTC 1682"}, "[5]": {"tested_on": "Fusarium oxysporum KCTC 6084"}, "[6]": {"tested_on": "Pseudomonas aeruginosa KCTC 1637"}, "[7]": {"tested_on": "Salmonella typhimurium KCTC 1926"}, "[8]": {"tested_on": "Serratia marcescens KCTC 1299"}, "[9]": {"tested_on": "Staphylococcus aureus KCTC 1621"}, "[10]": {"tested_on": "Streptococcus pyogenes KCTC 3096"}, "[11]": {"tested_on": "Trichosporon beigelii KCTC 7251"}, "[12]": {"tested_on": "Bacillus subtilis ATCC 6633"}, "[13]": {"tested_on": "Candida albicans ATCC 20032"}, "[14]": {"tested_on": "Escherichia coli ATCC 25922"}, "Escherichia coli ML-35p": {"tested_on": "Escherichia coli ML-35p"}, "[15]": {"tested_on": "Pseudomonas aeruginosa 08031014"}, "[16]": {"tested_on": "Pseudomonas aeruginosa ATCC 27853"}, "[17]": {"tested_on": "Pseudomonas aeruginosa PAO1"}, "[18]": {"tested_on": "Staphylococcus aureus ATCC 25923"}, "[19]": {"tested_on": "Staphylococcus aureus ATCC 43300"}, "Acinetobacter baumannii": {"tested_on": "Acinetobacter baumannii"}, "Enterococcus faecalis": {"tested_on": "Enterococcus faecalis"}, "Enterococcus gallinarum": {"tested_on": "Enterococcus gallinarum"}, "Pseudomonas aeruginosa": {"tested_on": "Pseudomonas aeruginosa"}, "Raoultella terrigena": {"tested_on": "Raoultella terrigena"}, "[20]": {"tested_on": "Bacillus subtilis ATCC 9372"}, "[21]": {"tested_on": "Escherichia coli ATCC 8739"}, "[22]": {"tested_on": "Proteus vulgaris NCTC 4635"}, "[23]": {"tested_on": "Pseudomonas aeruginosa ATCC 9027"}, "[24]": {"tested_on": "Staphylococcus aureus ATCC 6538"}, "Klebsiella pneumoniae": {"tested_on": "Klebsiella pneumoniae"}, "Nocardia asteroides": {"tested_on": "Nocardia asteroides"}, "Serratia marcescens": {"tested_on": "Serratia marcescens"}, "[25]": {"tested_on": "Staphylococcus aureus ATCC 2592"}, "[26]": {"tested_on": "Candida albicans NCPF 1467"}, "[27]": {"tested_on": "Enterococcus faecalis ATCC 29212"}, "[28]": {"tested_on": "Escherichia coli NCTC 10418"}, "[29]": {"tested_on": "Staphylococcus aureus ATCC 33591"}, "[30]": {"tested_on": "Staphylococcus aureus NCTC 10788"}, "[31]": {"tested_on": "Staphylococcus aureus S015"}, "[32]": {"tested_on": "Aggregatibacter actinomycetemcomitans ATCC 29522"}, "[33]": {"tested_on": "Candida albicans ATCC 18804"}}}
{"smiles": "CC[C@H](C)[C@H](NC(=O)[C@H](Cc1ccccc1)NC(=O)[C@@H](NC(=O)[C@@H](N)CCCCN)C(C)C)C(=O)N[C@@H](C)C(=O)N[C@H](C(=O)N[C@@H](CC(C)C)C(=O)N[C@H](C(=O)N[C@H](C(=O)N[C@@H](CO)C(=O)N[C@@H](CO)C(=O)N[C@@H](Cc1ccccc1)C(=O)N[C@@H](CC(C)C)C(=O)N[C@@H](CC(C)C)C(=O)N[C@@H](C)C(=O)N[C@@H](CCCCN)C(=O)N1CCC[C@H]1C(=O)N1CCC[C@H]1C(=O)N[C@@H](CCCN=C(N)N)C(=O)N[C@H](C(=O)O)C(C)C)C(C)C)C(C)C)[C@@H](C)O", "note": "[KVFIATLVVSSFLLAKPPRV]", "values": [{"measurement": "MIC", "setting": "Bacillus anthracis", "value": "≥ 117", "unit": "µM"}, {"measurement": "MIC", "setting": "Bacillus cereus", "value": "≥ 117", "unit": "µM"}, {"measurement": "MIC", "setting": "Escherichia coli", "value": "> 117", "unit": "µM"}, {"measurement": "MIC", "setting": "Staphylococcus aureus", "value": "> 117", "unit": "µM"}]}
{"smiles": "CC[C@H](C)[C@H](NC(=O)[C@H](CCCCN)NC(=O)[C@H](CCCCN)NC(=O)[C@H](Cc1ccccc1)NC(=O)[C@H](CC(C)C)NC(=O)[C@H](CCCCN)NC(=O)[C@H](Cc1c[nH]c2ccccc12)NC(=O)[C@H](CCCCN)NC(=O)[C@@H]1CCCN1C(=O)[C@H](Cc1ccccc1)NC(=O)[C@H](CCCCN)NC(=O)[C@H](CCCCN)NC(=O)[C@H](C)NC(=O)[C@H](CC(C)C)NC(=O)[C@H](Cc1cnc[nH]1)NC(=O)[C@H](CC(C)C)NC(=O)[C@H](Cc1ccccc1)NC(=O)[C@@H](N)CCCCN)C(N)=O", "note": "[KFLHLAKKFPKWKLFKKI]", "values": [{"measurement": "MIC", "setting": "[1]", "value": 25, "unit": "µM"}, {"measurement": "MIC", "setting": "[2]", "value": 0.78, "unit": "µM"}, {"measurement": "MIC", "setting": "[3]", "value": 12.5, "unit": "µM"}, {"measurement": "MIC", "setting": "[4]", "value": 3.13, "unit": "µM"}, {"measurement": "MIC", "setting": "[5]", "value": 25, "unit": "µM"}, {"measurement": "MIC", "setting": "[6]", "value": 1.56, "unit": "µM"}, {"measurement": "MIC", "setting": "[7]", "value": 1.56, "unit": "µM"}, {"measurement": "MIC", "setting": "[8]", "value": 3.13, "unit": "µM"}, {"measurement": "MIC", "setting": "[9]", "value": 1.56, "unit": "µM"}, {"measurement": "MIC", "setting": "[10]", "value": 3.13, "unit": "µM"}, {"measurement": "MIC", "setting": "[11]", "value": 12.5, "unit": "µM"}]}
{"smiles": "CC[C@H](C)[C@H](NC(=O)[C@H](CCCCN)NC(=O)[C@@H](NC(=O)[C@H](Cc1c[nH]c2ccccc12)NC(=O)[C@H](CS)NC(=O)[C@H](CCCNC(=N)N)NC(=O)[C@@H]1CCCN1C(=O)[C@@H](N)CCCNC(=N)N)[C@@H](C)CC)C(=O)N[C@@H](CCCCN)C(=O)N[C@@H](Cc1ccccc1)C(=O)N[C@@H](CCCNC(=N)N)C(=O)N[C@@H](CS)C(=O)N[C@@H](CCCCN)C(=O)N[C@@H](CO)C(=O)N[C@@H](CC(C)C)C(=O)N[C@@H](CCCCN)C(=O)N[C@@H](Cc1ccccc1)C(=O)O", "note": "[RPRCWIKIKFRCKSLKF]", "values": [{"measurement": "MIC", "setting": "[12]", "value": "≥ 45.3", "unit": "µM"}, {"measurement": "MIC", "setting": "[13]", "value": 8.48, "unit": "µM"}, {"measurement": "MIC", "setting": "[14]", "value": 17, "unit": "µM"}, {"measurement": "MIC", "setting": "Escherichia coli ML-35p", "value": 17, "unit": "µM"}, {"measurement": "MIC", "setting": "Escherichia coli", "value": 24, "unit": "µM"}, {"measurement": "MIC", "setting": "[15]", "value": 17, "unit": "µM"}, {"measurement": "MIC", "setting": "[16]", "value": 8.48, "unit": "µM"}, {"measurement": "MIC", "setting": "[17]", "value": 4.24, "unit": "µM"}, {"measurement": "MIC", "setting": "[18]", "value": 4.24, "unit": "µM"}, {"measurement": "MIC", "setting": "[19]", "value": 4.24, "unit": "µM"}]}
{"smiles": "CSCC[C@H](NC(=O)[C@H](C)NC(C)=O)C(=O)N[C@H](C(=O)NCC(=O)N[C@H](C(=O)O)[C@@H](C)O)C(C)C", "note": "[AMVGT]", "values": [{"measurement": "MIC", "setting": "Acinetobacter baumannii", "value": 26.3, "unit": "µM"}, {"measurement": "MIC", "setting": "Enterococcus faecalis", "value": "≥ 53.8", "unit": "µM"}, {"measurement": "MIC", "setting": "Enterococcus gallinarum", "value": 26.3, "unit": "µM"}, {"measurement": "MIC", "setting": "Pseudomonas aeruginosa", "value": 26.3, "unit": "µM"}, {"measurement": "MIC", "setting": "Raoultella terrigena", "value": 26.3, "unit": "µM"}]}
{"smiles": "CC[C@H](C)[C@H](NC(=O)[C@@H](NC(=O)[C@H](CO)NC(=O)[C@H](C)NC(=O)[C@@H](NC(=O)[C@H](CCCCN)NC(=O)[C@H](CCCCN)NC(=O)[C@@H](NC(=O)[C@@H](NC(=O)[C@@H](N)CC(=O)O)C(C)C)[C@@H](C)CC)C(C)C)C(C)C)C(=O)NCC(=O)O", "note": "[DVIKKVASVIG]", "values": [{"measurement": "MIC", "setting": "[20]", "value": "≥ 908", "unit": "µM"}, {"measurement": "MIC", "setting": "[21]", "value": "≥ 908", "unit": "µM"}, {"measurement": "MIC", "setting": "[22]", "value": "≥ 908", "unit": "µM"}, {"measurement": "MIC", "setting": "[23]", "value": "> 908", "unit": "µM"}, {"measurement": "MIC", "setting": "[24]", "value": "> 908", "unit": "µM"}]}
{"smiles": "CC[C@H](C)[C@@H]1NC(=O)[C@H](CCCCN)NC(=O)[C@@H](NC(=O)[C@H](CCSC)NC(=O)[C@@H](NC(=O)[C@H](CC(C)C)NC(=O)[C@@H]2CCCN2C(=O)[C@H](CC(C)C)NC(=O)[C@@H](NC(=O)[C@@H](N)Cc2ccccc2)C(C)C)C(C)C)CSSC[C@@H](C(=O)O)NC(=O)[C@H](CCCCN)NC(=O)[C@H](CCCN=C(N)N)NC(=O)[C@H](CC(C)C)NC1=O", "note": "[FVLPLVMCKILRKC]", "values": [{"measurement": "MIC", "setting": "[14]", "value": "> 60.1", "unit": "µM"}, {"measurement": "MIC", "setting": "Klebsiella pneumoniae", "value": "> 60.1", "unit": "µM"}, {"measurement": "MIC", "setting": "Nocardia asteroides", "value": 5.64, "unit": "µM"}, {"measurement": "MIC", "setting": "Serratia marcescens", "value": "≥ 60.1", "unit": "µM"}, {"measurement": "MIC", "setting": "[25]", "value": 5.64, "unit": "µM"}]}
{"smiles": "CC[C@H](C)[C@H](NC(=O)[C@H](CC(C)C)NC(=O)CNC(=O)[C@@H]1CCCN1C(=O)[C@@H](NC(=O)[C@H](CCSC)NC(=O)CNC(=O)[C@H](CC(C)C)NC(=O)[C@@H](N)Cc1ccccc1)[C@@H](C)CC)C(=O)NCC(=O)NCC(=O)N[C@@H](CC(C)C)C(=O)N[C@H](C(=O)N[C@@H](CO)C(=O)N[C@@H](C)C(=O)N[C@@H](Cc1ccccc1)C(=O)N[C@@H](CCCCN)C(=O)O)[C@@H](C)CC", "note": "[FLGMIPGLIGGLISAFK]", "values": [{"measurement": "MIC", "setting": "[26]", "value": 10, "unit": "µM"}, {"measurement": "MIC", "setting": "[27]", "value": 39.9, "unit": "µM"}, {"measurement": "MIC", "setting": "[28]", "value": "≥ 320", "unit": "µM"}, {"measurement": "MIC", "setting": "[29]", "value": 9.98, "unit": "µM"}, {"measurement": "MIC", "setting": "[30]", "value": 5, "unit": "µM"}, {"measurement": "MIC", "setting": "[31]", "value": 9.98, "unit": "µM"}]}
{"smiles": "CC[C@H](C)[C@H](NC(=O)[C@H](CC(=O)O)NC(=O)[C@H](CCCCN)NC(=O)[C@H](C)NC(=O)[C@H](C)NC(=O)CNC(=O)[C@H](CCCCN)NC(=O)[C@H](CC(C)C)NC(=O)[C@@H](NC(=O)[C@H](CC(=O)O)NC(=O)[C@@H](NC(=O)[C@@H](NC(=O)CN)C(C)C)C(C)C)[C@@H](C)CC)C(=O)N[C@@H](C)C(=O)NCC(=O)N[C@@H](Cc1cnc[nH]1)C(=O)N[C@@H](CC(C)C)C(=O)N[C@@H](C)C(=O)N[C@@H](CO)C(=O)N[C@@H](CCCCN)C(=O)N[C@H](C(=O)N[C@@H](CCSC)C(N)=O)C(C)C", "note": "[GVVDILKGAAKDIAGHLASKVM]", "values": [{"measurement": "MIC", "setting": "[32]", "value": "≥ 222", "unit": "µM"}, {"measurement": "MIC", "setting": "[33]", "value": "≥ 234", "unit": "µM"}, {"measurement": "MIC", "setting": "[14]", "value": 114, "unit": "µM"}]}
